From ChEMBL document CHEMBL1201862, “PubChem BioAssay data set” (2004)
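In this assay, cells in 96-well plates receive the compound at five concentrations for 48 hours. Endpoints are linearly interpolated between the surrounding concentrations. Here, GI50 denotes the concentration required for 50% inhibition of growth.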 Calls of active or inactive are those of the source. Cut-off read from the data, not from the text of the source: active = GI50 up to about 1.1 µM and inactive = higher.

Columns and labels:
Assay in all cases: growth of human tumour cells (NCI), 48 h
OVCAR-8 = test system: OVCAR-8
SNB-75 = test system: SNB-75
HCC 2998 = test system: HCC 2998
M14 = test system: M14
Malme-3M = test system: Malme-3M
RXF 393 = test system: RXF 393
MDA-MB-231 = test system: MDA-MB-231
SF-268 = test system: SF-268
MDA-MB-435 = test system: MDA-MB-435
HL-60 = test system: HL-60
MCF7 = test system: MCF7
HCT-15 = test system: HCT-15
OVCAR-3 = test system: OVCAR-3
A549 = test system: A549
SK-MEL-2 = test system: SK-MEL-2
NCI-H226 = test system: NCI-H226
786-0 = test system: 786-0
RPMI-8226 = test system: RPMI-8226
SN12C = test system: SN12C

| SMILES | GI50 (OVCAR-8) | GI50 (SNB-75) | GI50 (HCC 2998) | GI50 (M14) | GI50 (Malme-3M) | GI50 (RXF 393) | GI50 (MDA-MB-231) | GI50 (SF-268) | GI50 (MDA-MB-435) | GI50 (HL-60) | GI50 (MCF7) | GI50 (HCT-15) | GI50 (OVCAR-3) | GI50 (A549) | GI50 (SK-MEL-2) | GI50 (NCI-H226) | GI50 (786-0) | GI50 (RPMI-8226) | GI50 (SN12C) |
| --- | --- | --- | --- | --- | --- | --- | --- | --- | --- | --- | --- | --- | --- | --- | --- | --- | --- | --- | --- |
| CC(=O)N1CC(=O)N2C(=O)/C(=C/c3ccc(Cl)cc3)N=C12 | > 100 µM (inactive) | > 100 µM (inactive) | > 100 µM (inactive) | > 100 µM (inactive) | > 100 µM (inactive) | > 100 µM (inactive) | > 100 µM (inactive) | > 100 µM (inactive) | > 100 µM (inactive) | 27.7 µM (inactive) | 97.9 µM (inactive) | > 100 µM | > 100 µM (inactive) | > 100 µM (inactive) | > 100 µM (inactive) | > 100 µM (inactive) | > 100 µM (inactive) | 50.7 µM (inactive) | > 100 µM (inactive) |
| O=C1CC2(CCC(O)(c3ccc(Cl)cc3)C(C(=O)c3ccc(Cl)cc3)C2)C(=O)c2ccccc2N1 (centres undefined) | 14.7 µM (inactive) | 0.146 µM (active) | 35.5 µM (inactive) | 18.2 µM (inactive) | > 28.1 µM (inactive) | 4.89 µM (inactive) | 10.2 µM (inactive) | 3.1 µM (inactive) | > 29.9 µM (inactive) | 11 µM (inactive) | 22.7 µM (inactive) | > 42.7 µM | > 100 µM (inactive) | 12.5 µM (inactive) | > 100 µM (inactive) | 12.7 µM (inactive) | 1.34 µM (inactive) | 18.6 µM (inactive) | 5.68 µM (inactive) |
| CN(C)c1ccc(/C=C(\NC(=O)c2ccccc2)c2nc3ccccc3c(=O)o2)cc1 | 43.4 µM (inactive) | > 100 µM (inactive) | > 100 µM (inactive) | > 100 µM (inactive) | > 100 µM (inactive) | > 100 µM (inactive) | > 100 µM (inactive) | > 100 µM (inactive) | > 100 µM (inactive) | > 100 µM (inactive) | 70.5 µM (inactive) | > 100 µM | > 100 µM (inactive) | > 100 µM (inactive) | > 100 µM (inactive) | > 100 µM (inactive) | > 100 µM (inactive) | > 100 µM (inactive) | > 100 µM (inactive) |
| Cc1ccc(/N=N/N(C)C(C)C(O)Cc2ccccc2)cc1 (centres undefined) | 37.7 µM (inactive) | 43.9 µM (inactive) | 53.3 µM (inactive) | 95.7 µM (inactive) | > 100 µM (inactive) | 40.6 µM (inactive) | 52.7 µM (inactive) | 46 µM (inactive) | 35.9 µM (inactive) | 33.8 µM (inactive) | 47.9 µM (inactive) | 41 µM | 84.3 µM (inactive) | 60.5 µM (inactive) | 37.8 µM (inactive) | > 100 µM (inactive) | 59.4 µM (inactive) | 12.4 µM (inactive) | 27.9 µM (inactive) |
| COC1C(O)=C2C(=O)OC(C)(O)/C=C/C=C\C=C/C=C/C(c3ccccc3)NC(=O)/C=C/C=C/C=C/C=C/C2(C)C1O (centres undefined) | 0.0034 µM (active) | 0.028 µM (active) | 0.0122 µM (active) | 0.0792 µM (active) | 0.0101 µM (active) | 0.0184 µM (active) | 0.0101 µM (active) | 0.0171 µM (active) | 0.0193 µM (active) | 0.00348 µM (active) | 0.001 µM (active) | < 0.001 µM | 0.0445 µM (active) | 0.00105 µM (active) | 0.0361 µM (active) | 0.00646 µM (active) | 0.00787 µM (active) | 0.0111 µM (active) | 0.0142 µM (active) |
| N=C(N)N/N=C/c1cc(Cl)cc(Cl)c1O | > 100 µM (inactive) | 30.2 µM (inactive) | 15.8 µM (inactive) | 54.5 µM (inactive) | 42.3 µM (inactive) | 58.5 µM (inactive) | 62.7 µM (inactive) | 45.9 µM (inactive) | 53.5 µM (inactive) | 33.2 µM (inactive) | 44.6 µM (inactive) | 26.1 µM | 67.3 µM (inactive) | > 100 µM (inactive) | 34.1 µM (inactive) | 46.6 µM (inactive) | 76.7 µM (inactive) | 57.3 µM (inactive) | 49.3 µM (inactive) |
